US20060173079A1, “Compositions and methods for improving the condition of patients suffering from copd and other diseases” (priority 2003, published 2006)
Entries after “also recorded” stand apart in the source; their conditions may differ.

Tests used:
[1] = Plasma GLU concentration after continuous ingestion of a glutamate enriched drink; format: in vivo, human
From the text: When using a continuous infusion protocol of stable isotopes, plasma glutamate concentrations have to be in steady state condition before metabolic data can be obtained.
Subsequently, we performed several pilot studies (summary see FIG. 1) in order to obtain the optimal dose of glutamate. Pilot studies included continuous ingestion of a glutamate enriched drink and evaluation of the concentration of glutamate and related amino acids in plasma.
In the 2nd pilot study, we decided to use the pure form of glutamate to avoid the large sodium content. […] Blood samples were taken to evaluate plasma glutamate level.
This protocol was used in further studies.

[2] = GLU appearance in plasma and splanchnic GLU extraction (stable isotope methodology); format: in vivo, human; settings: young subjects, after start of GLU ingestion
[3] = test system: whole body protein breakdown; experiment: Whole body protein breakdown (phenylalanine turnover, stable isotope methodology); format: in vivo, human; settings: young healthy volunteers, during GLU supplementation
Description: In the young healthy volunteers, whole body protein and 3-methylhistidine turnover were measured during glutamate supplementation using stable isotope methodology. […] In order to elucidate the contribution of muscle to whole body protein metabolism, the rate of myofibrillar protein breakdown (3-methylhistidine turnover) was simultaneously measured.

[4] = test system: myofibrillar (muscle) protein breakdown; experiment: Myofibrillar protein breakdown (3-methylhistidine turnover / rate of appearance); format: in vivo, human; settings: for 3-methylhistidine rate of appearance in plasma during exercise: submaximal cycle exercise 20 min at 50% maximal workload, GLU versus water
[5] = Plasma urea concentration after test drinks; format: in vivo, human; settings: for plasma urea compared to baseline values: healthy control and COPD group, 30.0 mg GLU/kg or 29.8 mg glutamine/kg every 20 min for 4 hours
From the text: The 3 test drinks were studied on different days and in a randomized order using a similar study protocol.

[6] = test system: whole body leucine turnover; experiment: Whole body leucine turnover (leucine tracer); format: in vivo, human
Description: FIG. 11: Whole body leucine rate of appearance gives a reflection of whole body leucine turnover and is the sum of leucine turnover coming from protein breakdown and from other (non-protein) sources.
(§1) The subjects were measured before and during a submaximal constant work rate cycle test of 20 minutes (at 50% of their maximal workload previously achieved during an incremental exercise test).

[7] = Plasma lactate response to exercise; format: in vivo, human
Description: as §1

[8] = Side effects / tolerance incl. Chinese restaurant syndrome (food tolerance questionnaire); format: in vivo, human; settings: for side effects / adverse complaints (including Chinese Restaurant syndrome symptoms): COPD patients and healthy control subjects, 6-7 g/hour for 4-6 hours
Description: In all the pilot studies, the patients and the healthy control subjects in the age ranging from 20 to 80 years were run through a protocol to determine feasibility.
In the experiments the intake of glutamate is usually in the order of 6-7 g/hour for a period of 4-6 hours meaning a total intake of […].
Moreover, a placebo (glutamine) was used for comparison.

[9] = cited from earlier work

N[C@@H](CCC(=O)O)C(=O)O [GLU, L-glutamic acid]
time to steady state in GLU concentration after start of ingestion ([1]; 4 subjects, 30 mg GLU/kg body weight every 20 min (FIG. 2)): ≤ 2 h
rise in plasma GLU concentration, COPD group versus control group ([1]; 8 COPD patients vs 8 healthy controls, 30 mg GLU/kg every 20 min): significantly lower
plasma GLU level compared to baseline ([1]; COPD patients and healthy age-matched control subjects (both groups), 30 mg GLU/kg every 20 min, 120 min after start): significantly increased; also recorded: significant increase
steady state in plasma glutamate level ([1]; healthy volunteers, 69.4 mg glutamate/kg body weight every 30 minutes (2.4% solution)): 30 min intervals were too long to reach a steady state
time to steady state of plasma glutamate concentration ([1]; healthy young volunteers, 30 mg GLU/kg body weight every 20 min): ≤ 120 min
increase in the plasma glutamate concentration ([1]; healthy young volunteers, 30 mg GLU/kg body weight every 20 min (2.4% solution), total 300 mg/kg): about 500%
plasma GLU concentration ([1]; healthy young volunteers, GLU added to carbohydrate (maltodextrin) whey protein meal (carbohydrate:protein:glutamate=5:2:5)): significantly increased to steady state values
time to steady state of whole body GLU plasma appearance [2]: ≤ 1.5 h
whole body protein breakdown rate (phenylalanine turnover) [3]: gradual decrease; also recorded: significantly decreased
myofibrillar protein breakdown during the first 10 minutes of exercise ([4]; COPD group, cycle exercise, ingesting glutamate): reduction
3-methylhistidine rate of appearance in plasma during exercise ([4]; COPD group): abolished the increase
3-methylhistidine rate of appearance in plasma during exercise ([4]; COPD group, listed as glutamate): diminished
myofibrillar protein breakdown (3-methylhistidine turnover) ([4]; young healthy volunteers at rest, in less than one hour after GLU ingestion): reduction; also recorded: decreased
plasma urea compared to baseline values [5]: decreased
plasma urea concentration after intake ([5]; healthy young volunteers, GLU with carbohydrate (maltodextrin) protein meal): decreased
whole body leucine turnover not related to protein turnover ([6]; at rest, COPD and control subjects): reduction
increase in whole body leucine turnover during exercise ([6]; cycle exercise 20 min at 50% maximal workload, 30 mg GLU/kg every 20 min versus water, COPD (and control) group): diminished the increase
increase in plasma lactate concentration during exercise versus water ([7]; COPD group (text to FIG. 13)): lower increase
increase in plasma lactate concentration during exercise versus water ([7]; healthy control group (FIG. 13 legend)): lower increase
CRS effects versus placebo (glutamine) ([8]; 26 healthy volunteers, 30 mg GLU/kg every 20 min): No significant differences
number and severity of complaints versus placebo (glutamine) ([8]; 26 healthy volunteers, 30 mg GLU/kg every 20 min, questionnaire until 2 hours after last ingestion): No differences
subjects having the symptoms known as Chinese restaurant syndrome ([8]; 26 healthy volunteers, 30 mg GLU/kg every 20 min, until 2 hours after ingestion): less than 5%
side effects / adverse complaints (including Chinese Restaurant syndrome symptoms) [8]: none
side effects / adverse complaints (including Chinese Restaurant syndrome symptoms) ([8]; listed as glutamate): do not occur

N[C@@H](CCC(=O)O)C(=O)[O-].[Na+] [MSG, monosodium glutamate]
tolerance of the drink ([8]; healthy volunteers, 3.6% MSG solution, 80.3 mg MSG/kg body weight every 30 minutes): well
side effects after high (bolus) dose ([9]; Graham et al., healthy subjects, bolus MSG): transient headaches
plasma GLU concentration versus dose ([9]; Stegink et al. and Ghezzi et al., healthy volunteers, various concentrations of MSG): increased proportionally to the given dose
muscle GLU concentration ([9]; young healthy men, glutamate provided in excess as MSG): increase

NC(=O)CC[C@H](N)C(=O)O [GLN, glutamine, reference compound]
plasma urea compared to baseline values [5]: increased
